Experimental data: ChEMBL document CHEMBL5634174, “Biological evaluation of sulfonate and sulfate analogues of lithocholic acid: A bioisosterism-guided approach towards the discovery of potential sialyltransferase inhibitors for antimetastatic study” (Bioorg Med Chem Lett, 2024)
Calls of active or inactive are those of the source. The rule behind the calls is not given here.

Assays:
[1] = target: T1, Beta-galactoside alpha-2,6-sialyltransferase 1 (Homo sapiens) (UniProt P15907); assay: Inhibition of recombinant human N-terminal His tagged ST6GAL1 (44 to 406 residues) at 50 uM by UPLC-based assay relative to control
T1 sequence (whole entry): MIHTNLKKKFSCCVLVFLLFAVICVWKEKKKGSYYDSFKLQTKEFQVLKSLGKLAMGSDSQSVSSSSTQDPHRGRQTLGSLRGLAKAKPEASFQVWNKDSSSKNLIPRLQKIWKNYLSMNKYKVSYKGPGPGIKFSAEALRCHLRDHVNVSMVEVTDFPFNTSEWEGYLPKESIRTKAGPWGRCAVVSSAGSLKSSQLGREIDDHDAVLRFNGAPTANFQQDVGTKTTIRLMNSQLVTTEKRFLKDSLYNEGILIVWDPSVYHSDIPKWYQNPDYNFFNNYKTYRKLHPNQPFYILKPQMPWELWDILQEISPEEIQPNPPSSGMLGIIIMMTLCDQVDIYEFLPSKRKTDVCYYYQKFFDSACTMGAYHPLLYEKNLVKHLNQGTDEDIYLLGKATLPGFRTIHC

[2] = target: T2, Beta-galactoside alpha-2,6-sialyltransferase 1 (Homo sapiens, UniProt P15907); assay: Inhibition of recombinant human N-terminal His tagged ST6GAL1 (44 to 406 residues) by UPLC-based assay
T2 sequence (P15907 whole entry): T1 sequence (whole entry)

[3] = target: T3, Sialyltransferase ST3Gal-I (Rattus norvegicus) (UniProt Q6H8N0); assay: Inhibition of rat ST3GAL1 at 500 uM by UPLC-based assay relative to control
T3 sequence (whole entry): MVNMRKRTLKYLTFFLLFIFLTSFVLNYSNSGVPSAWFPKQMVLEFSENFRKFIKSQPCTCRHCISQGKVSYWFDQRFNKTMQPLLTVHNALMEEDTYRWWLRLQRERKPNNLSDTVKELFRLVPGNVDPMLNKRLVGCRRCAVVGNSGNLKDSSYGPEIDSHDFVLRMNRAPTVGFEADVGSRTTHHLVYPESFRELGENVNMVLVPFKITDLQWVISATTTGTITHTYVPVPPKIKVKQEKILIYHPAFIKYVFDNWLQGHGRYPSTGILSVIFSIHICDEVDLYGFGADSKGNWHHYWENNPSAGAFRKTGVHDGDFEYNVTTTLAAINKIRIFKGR

[4] = target: T4, Sialyltransferase ST3Gal-I (Rattus norvegicus, UniProt Q6H8N0); assay: Inhibition of rat ST3GAL1 by UPLC-based assay
T4 sequence (Q6H8N0 whole entry): T3 sequence (whole entry)

[5] = tested on: MDA-MB-231; assay: Inhibition of cell invasion in human MDA-MB-231 cells assessed as reduction in cell adhesion to fibronectin at 60 uM incubated for 24 hrs; assay type: functional, cell-based
[6] = tested on: MDA-MB-231; assay: Inhibition of cell invasion in human MDA-MB-231 cells assessed as reduction in cell adhesion at 60 uM after 48 hrs; assay type: functional, cell-based
[7] = target: Integrin alpha-V (Homo sapiens) (UniProt P06756); assay: Inhibition of integrin alpha-v in human MDA-MB-231 cells assessed as decrease in sialylation level incubated for 48 hrs by Western blot analysis; assay type: cell-based; conditions: dose 20-80 µM
Integrin alpha-V (Homo sapiens), sequence (P06756 31-889 limits assumed): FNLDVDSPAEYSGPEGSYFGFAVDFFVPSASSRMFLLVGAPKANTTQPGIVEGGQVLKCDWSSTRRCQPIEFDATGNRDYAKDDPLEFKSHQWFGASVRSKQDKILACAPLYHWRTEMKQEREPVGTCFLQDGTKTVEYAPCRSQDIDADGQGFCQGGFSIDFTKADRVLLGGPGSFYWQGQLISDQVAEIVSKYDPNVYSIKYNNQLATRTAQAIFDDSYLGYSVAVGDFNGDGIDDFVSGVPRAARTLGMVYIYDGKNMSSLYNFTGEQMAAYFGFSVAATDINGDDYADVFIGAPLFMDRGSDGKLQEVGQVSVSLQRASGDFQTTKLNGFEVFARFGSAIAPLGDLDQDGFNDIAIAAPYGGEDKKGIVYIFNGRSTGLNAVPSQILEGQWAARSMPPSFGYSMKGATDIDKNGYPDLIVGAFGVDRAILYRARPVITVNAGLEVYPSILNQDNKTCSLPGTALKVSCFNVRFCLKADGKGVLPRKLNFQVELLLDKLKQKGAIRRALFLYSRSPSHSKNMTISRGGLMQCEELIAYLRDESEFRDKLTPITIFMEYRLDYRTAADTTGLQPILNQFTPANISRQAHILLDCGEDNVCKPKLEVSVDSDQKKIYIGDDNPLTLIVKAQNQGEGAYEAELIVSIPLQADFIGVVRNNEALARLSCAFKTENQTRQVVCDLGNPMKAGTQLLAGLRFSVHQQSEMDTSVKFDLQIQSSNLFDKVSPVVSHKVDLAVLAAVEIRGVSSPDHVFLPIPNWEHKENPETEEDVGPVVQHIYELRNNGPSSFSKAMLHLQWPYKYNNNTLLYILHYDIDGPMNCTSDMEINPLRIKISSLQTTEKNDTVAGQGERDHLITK
Integrin alpha-V (Homo sapiens), sequence (P06756 891-1048 limits assumed): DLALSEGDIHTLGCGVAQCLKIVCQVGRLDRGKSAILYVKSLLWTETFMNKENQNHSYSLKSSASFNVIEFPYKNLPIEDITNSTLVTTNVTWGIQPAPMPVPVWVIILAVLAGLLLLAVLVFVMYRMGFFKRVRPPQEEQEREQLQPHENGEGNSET

[8] = target: Integrin beta-1 (Homo sapiens) (UniProt P05556); assay: Inhibition of integrin beta-1 in human MDA-MB-231 cells assessed as decrease in sialylation level incubated for 48 hrs by Western blot analysis; assay type: cell-based; conditions: dose 20-80 µM
Integrin beta-1 (Homo sapiens), sequence (P05556 whole entry): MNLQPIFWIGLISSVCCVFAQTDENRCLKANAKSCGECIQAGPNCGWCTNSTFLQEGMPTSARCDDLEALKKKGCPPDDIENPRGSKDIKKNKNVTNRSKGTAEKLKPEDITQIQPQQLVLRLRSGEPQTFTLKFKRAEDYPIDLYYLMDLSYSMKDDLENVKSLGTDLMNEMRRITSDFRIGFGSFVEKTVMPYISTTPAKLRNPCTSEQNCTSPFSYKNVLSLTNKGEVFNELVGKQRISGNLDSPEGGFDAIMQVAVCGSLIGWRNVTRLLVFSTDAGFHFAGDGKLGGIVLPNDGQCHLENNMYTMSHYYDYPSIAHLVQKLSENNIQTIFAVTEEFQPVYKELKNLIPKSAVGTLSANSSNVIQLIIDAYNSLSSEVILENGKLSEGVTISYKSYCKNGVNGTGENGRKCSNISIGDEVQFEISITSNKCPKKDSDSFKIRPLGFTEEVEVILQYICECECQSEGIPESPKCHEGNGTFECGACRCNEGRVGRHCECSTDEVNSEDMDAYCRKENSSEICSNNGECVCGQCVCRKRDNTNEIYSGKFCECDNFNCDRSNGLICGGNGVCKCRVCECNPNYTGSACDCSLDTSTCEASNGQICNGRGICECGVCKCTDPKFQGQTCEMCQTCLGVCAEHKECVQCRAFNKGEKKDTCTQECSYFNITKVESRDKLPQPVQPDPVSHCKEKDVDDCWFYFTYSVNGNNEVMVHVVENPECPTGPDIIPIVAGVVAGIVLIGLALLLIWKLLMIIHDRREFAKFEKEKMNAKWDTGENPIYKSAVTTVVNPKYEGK

[9] = target: T5, Integrin beta-5 (Homo sapiens) (UniProt P18084); assay: Inhibition of integrin beta-5 in human MDA-MB-231 cells assessed as decrease in sialylation level incubated for 48 hrs by Western blot analysis; assay type: cell-based; conditions: dose 20-80 µM
T5 sequence (whole entry): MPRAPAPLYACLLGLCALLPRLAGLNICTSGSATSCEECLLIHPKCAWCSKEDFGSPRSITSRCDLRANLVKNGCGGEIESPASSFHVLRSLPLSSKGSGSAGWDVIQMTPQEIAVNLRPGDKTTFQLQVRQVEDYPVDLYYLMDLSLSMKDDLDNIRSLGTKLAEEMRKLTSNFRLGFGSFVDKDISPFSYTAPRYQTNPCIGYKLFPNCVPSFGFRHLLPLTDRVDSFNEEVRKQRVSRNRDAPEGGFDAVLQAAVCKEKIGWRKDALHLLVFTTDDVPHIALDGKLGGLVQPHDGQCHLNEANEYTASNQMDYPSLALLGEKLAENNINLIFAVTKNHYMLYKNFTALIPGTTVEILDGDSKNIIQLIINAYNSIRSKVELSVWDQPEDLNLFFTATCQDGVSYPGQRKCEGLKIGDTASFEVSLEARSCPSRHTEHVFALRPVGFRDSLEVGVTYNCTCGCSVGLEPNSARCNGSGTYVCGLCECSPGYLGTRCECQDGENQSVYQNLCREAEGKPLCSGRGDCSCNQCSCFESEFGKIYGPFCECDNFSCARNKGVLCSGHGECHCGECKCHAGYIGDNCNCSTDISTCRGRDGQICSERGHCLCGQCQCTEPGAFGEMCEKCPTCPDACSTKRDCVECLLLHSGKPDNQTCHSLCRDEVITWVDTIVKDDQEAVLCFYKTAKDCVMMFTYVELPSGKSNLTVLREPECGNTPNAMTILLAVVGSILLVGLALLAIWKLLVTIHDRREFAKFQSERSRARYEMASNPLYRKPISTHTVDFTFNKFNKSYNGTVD

[10] = target: Focal adhesion kinase 1 (Homo sapiens) (UniProt Q05397); assay: Inhibition of FAK phosphorylation at Y397 residue in human MDA-MB-231 cells at 80 uM incubated for 2 hrs by Western blot analysis; assay type: cell-based
Focal adhesion kinase 1 (Homo sapiens), sequence (Q05397 2-1052 limits assumed): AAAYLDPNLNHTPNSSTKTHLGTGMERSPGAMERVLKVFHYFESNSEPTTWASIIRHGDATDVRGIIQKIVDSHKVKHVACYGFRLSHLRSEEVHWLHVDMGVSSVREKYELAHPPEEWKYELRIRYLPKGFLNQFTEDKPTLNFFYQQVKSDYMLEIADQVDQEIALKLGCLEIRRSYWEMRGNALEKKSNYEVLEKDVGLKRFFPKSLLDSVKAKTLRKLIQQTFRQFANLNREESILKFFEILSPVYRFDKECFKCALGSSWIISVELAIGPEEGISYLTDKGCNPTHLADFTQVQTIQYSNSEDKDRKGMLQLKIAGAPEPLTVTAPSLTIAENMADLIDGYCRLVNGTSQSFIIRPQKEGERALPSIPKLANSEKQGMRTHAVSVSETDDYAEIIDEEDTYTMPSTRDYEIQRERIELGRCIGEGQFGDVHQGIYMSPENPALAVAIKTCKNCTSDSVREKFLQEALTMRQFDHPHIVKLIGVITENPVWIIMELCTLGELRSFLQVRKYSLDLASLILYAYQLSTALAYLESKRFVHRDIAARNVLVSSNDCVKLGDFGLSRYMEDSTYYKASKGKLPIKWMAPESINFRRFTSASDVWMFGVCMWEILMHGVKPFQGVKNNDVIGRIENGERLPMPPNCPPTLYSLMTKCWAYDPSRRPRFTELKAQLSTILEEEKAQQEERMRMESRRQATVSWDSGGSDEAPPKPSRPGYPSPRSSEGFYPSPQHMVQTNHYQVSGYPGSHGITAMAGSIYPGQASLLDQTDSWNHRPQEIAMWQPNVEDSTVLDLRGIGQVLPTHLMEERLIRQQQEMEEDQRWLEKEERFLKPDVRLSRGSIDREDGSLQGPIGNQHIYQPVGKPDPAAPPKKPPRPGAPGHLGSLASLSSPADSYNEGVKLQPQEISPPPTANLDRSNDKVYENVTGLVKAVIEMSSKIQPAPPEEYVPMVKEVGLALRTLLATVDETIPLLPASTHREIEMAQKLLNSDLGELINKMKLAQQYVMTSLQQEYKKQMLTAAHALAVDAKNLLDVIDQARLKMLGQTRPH

[11] = target: Focal adhesion kinase 1 (Homo sapiens) (UniProt Q05397); assay: Inhibition of FAK phosphorylation at Y576/577 residue in human MDA-MB-231 cells at 80 uM incubated for 2 hrs by Western blot analysis; assay type: cell-based
[12] = target: Paxillin (Homo sapiens) (UniProt P49023); assay: Inhibition of paxillin phosphorylation at Y118 residue in human MDA-MB-231 cells at 80 uM incubated for 2 hrs by Western blot analysis; assay type: cell-based
Paxillin (Homo sapiens), sequence (P49023 whole entry): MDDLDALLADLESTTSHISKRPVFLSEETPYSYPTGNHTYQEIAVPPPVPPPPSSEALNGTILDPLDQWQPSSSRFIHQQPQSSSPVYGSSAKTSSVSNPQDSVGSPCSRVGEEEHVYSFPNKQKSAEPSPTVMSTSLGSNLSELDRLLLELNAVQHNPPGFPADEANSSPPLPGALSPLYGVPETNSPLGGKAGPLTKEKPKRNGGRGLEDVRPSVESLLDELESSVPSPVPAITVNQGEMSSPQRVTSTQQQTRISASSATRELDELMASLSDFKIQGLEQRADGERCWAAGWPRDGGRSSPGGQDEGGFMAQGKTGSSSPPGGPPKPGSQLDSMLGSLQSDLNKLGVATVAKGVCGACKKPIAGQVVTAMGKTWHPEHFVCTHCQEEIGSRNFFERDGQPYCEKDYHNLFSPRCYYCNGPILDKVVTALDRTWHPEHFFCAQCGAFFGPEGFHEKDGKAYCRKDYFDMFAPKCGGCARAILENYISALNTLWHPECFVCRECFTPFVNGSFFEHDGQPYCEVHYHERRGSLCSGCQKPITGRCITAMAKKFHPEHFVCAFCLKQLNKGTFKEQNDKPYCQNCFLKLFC

[13] = target: Focal adhesion kinase 1 (Homo sapiens) (UniProt Q05397); assay: Inhibition of FAK phosphorylation at Y397 residue in human MDA-MB-231 cells incubated for 2 hrs by Western blot analysis; assay type: cell-based; conditions: dose 20-80 µM
[14] = target: Focal adhesion kinase 1 (Homo sapiens) (UniProt Q05397); assay: Inhibition of FAK phosphorylation at Y576/577 residue in human MDA-MB-231 cells incubated for 2 hrs by Western blot analysis; assay type: cell-based; conditions: dose 20-80 µM
[15] = target: Paxillin (Homo sapiens) (UniProt P49023); assay: Inhibition of paxillin phosphorylation at Y118 residue in human MDA-MB-231 cells incubated for 2 hrs by Western blot analysis; assay type: cell-based; conditions: dose 20-80 µM
[16] = tested on: MDA-MB-231; assay: Effect on total paxillin expression level in human MDA-MB-231 cells at 20 to 80 uM incubated for 2 hrs by Western blot analysis; assay type: functional, cell-based; conditions: dose 20-80 µM

SMILES: C[C@H](CCCOS(=O)(=O)O)[C@H]1CC[C@H]2[C@@H]3CC[C@@H]4C[C@H](O)CC[C@]4(C)[C@H]3CC[C@]12C
- inhibition [1]: 100%
- IC50 [2]: 16.7 µM
- inhibition [3]: 3%
- IC50 [4]: > 1000 µM
- inhibition [5]: Active
- inhibition [6]: inactive
- Activity [7]: Dose-Dependent Effect
- Activity [8]: Dose-Dependent Effect
- Activity [9]: Dose-Dependent Effect
- inhibition [10]: Active
- inhibition [11]: Active
- inhibition [12]: Active
- inhibition [13]: Dose-Dependent Effect
- inhibition [14]: Dose-Dependent Effect
- inhibition [15]: Dose-Dependent Effect
- Activity [16]: inactive
